Test results published in patent US7972772B2, “KIF11 and method for diagnosing non-small cell lung cancer” (Oncotherapy Science, Inc., priority 2004, dated 2011).
No end group written: not given here.

Experiments:
A549 cells [1] = assay: Monastrol treatment of A549 cells, microscopy and time-lapse video-microscopy; type: cell-based, human; settings: most non-mitotic cells
A549 cells [2] = assay: Nocodazole treatment of A549 cells, immunocytochemistry; type: cell-based, human; settings: 10 μM, four hours
Text: We also investigated the endogenous location of KOC1 and KIF11 particles on the ultrafine structure of microtubules bridging individual A549 cells by an immunocytochemical study, using affinity-purified anti-KOC1- or anti-KIF11 for primary antibody and Alexa594-labeled anti-rabbit IgG for secondary antibody (Molecular Probe) and anti-alpha-tubulin-FITC monoclonal antibody. […] Moreover, no particle was found on the residual structure between the cells. […] To further clarify the detailed mechanism by which the KOC1-KIF11 complex transports mRNAs in NSCLC cells, we have searched for other component(s) that might be interacting with KIF11. Immunoprecipitation with anti-KIF11 polyclonal antibody using a lysate of LC319 cells identified a 150-kDa protein, which was later determined to be a dynactin 1 (DCTN1; p150, glued homolog, Drosophila) by MALDI-TOF mass-spectrometric analysis. DCTN1 is the largest subunit of DCTN, which binds to the cytoplasmic motor-protein dynein and activates vesicle transport along microtubules (Holzbaur, E. L. & Tokito, M. K. Genomics 31, 398-399 (1996); Tokito, M. K. et al., Mol. Biol. Cell 7, 1167-1180 (1996)), or binds to KIF11 to probably participate in centrosome separation (Blangy, A. et al., J. Biol. Chem. 272, 19418-19424 (1997)). […]

[3] = target: T1, endogenous GHSR1b and NTSR1 on LC319 cells (Homo sapiens, UniProt P30989+Q92847); assay: Receptor-ligand binding assay on LC319 cells
T1 construct: endogenous in cells; host or cells: LC319
Method: (§1) To further confirm binding of NMU-25 to the endogenous candidate receptors on the NSCLC cells, we performed receptor-ligand binding assay using the LC319 and PC-14 cells. Briefly, these cells trypsinized were seeded onto 96-well black-wall, clear-bottom microtiter plates 24 hours prior to the assay. The medium was removed and the cells were incubated with Cy5-NMU-25 with a 10-fold excess of unlabeled competitor. The plate was incubated in the dark for 24 hours at 37° C. and was scanned on the 8200 Cellular Detection System (Applied Biosystems). 8200 Analysis Software creates a digitized gray scale image, quantitates the amount of fluorescence bound on the surface of each cell, and enumerates the fluorescent cells.

[4] = target: T2, endogenous GHSR1b and NTSR1 on PC-14 cells (Homo sapiens, UniProt P30989+Q92847); assay: Receptor-ligand binding assay on PC-14 cells
T2 construct: endogenous in cells; host or cells: PC-14
Method: as §1

GHSR1b = assay: Ligand-receptor binding assay, COS-7 cells transfected with GHSR1b; design: species or system human
Method: (§2) To identify direct binding of NMU-25 to its candidate receptors, GHSR1a, GHSR1b and NTSR1, the following experiments were performed. The entire coding region of each receptor gene was amplified by RT-PCR using primers
(§3) The products were digested with EcoR1 and BainH1 and cloned into appropriate sites of p3XFLAG-CMV10 vector (Sigma-Aldrich Co.). COS-7 cells were transfected with GHSR1b or NTSR1 expression plasmids using FuGENE6, as described above. Transfected COS-7 cells were cultured with 0.5 μM rhodamine-labeled NMU-25 peptide (NMU-25-rhodamine: Phoenix Pharmaceuticals. Inc.) for 12 hours, washed five times in PBS(−), and fixed in 4% paraformaldehyde solution for 60 min at room temperature. Then the cells were incubated with antibodies to FLAG-tagged GHSR1a, GHSR1b, or NTSR1 proteins (Sigma-Aldrich Co.), stained with a goat anti-mouse secondary antibody conjugated to FITC (Cappel) and viewed under laser-confocal microscopy (TCS SP2 AOBS: Leica Microsystems). […]
(§4) To confirm the binding of NMU-25 to the candidate receptors, flow-cytometric analysis was performed using the same series of COS-7 cells. […] The population of cells binding to rhodamine-labeled NMU-25 was determined by flow cytometry.

NTSR1 = assay: Ligand-receptor binding assay, COS-7 cells transfected with NTSR1; design: species or system human
Method: as §2, §3, §4

GHSR1b/NTSR1 = target: T3, GHSR1b/NTSR1 (Homo sapiens, UniProt P30989+Q92847); assay: Intracellular Ca2+ mobilization assay in LC319 cells; type: cell-based
T3 construct: endogenous in cells; host or cells: LC319
Method: Trypsinized LC319 cells were seeded onto poly-D-lysine coated 384-well black-wall, clear-bottom microtiter plate (1.0×10^4 cells/ml) 24 hours prior to assay. Cells were loaded for 1 hour with […] Fluo-4-AM fluorescent indicator dye in assay buffer (Hank's balanced salts solution, 20 mM HEPES, 2.5 mM probenecid), washed three times with assay buffer, and then returned to the incubator for 10 min before assay on a fluorometric imaging plate reader (FLIPR, Molecular Devices). Maximum change in fluorescence over base line was used to determine the response of the cells to the NMU-25 peptides stimulation.

FOXM1 = assay: Induction of FOXM1 in LC319 cells, semiquantitative RT-PCR; type: cell-based, human; settings: LC319, 100 μM, versus BSA control
Method: Expression of the candidate genes was additionally detected by semiquantitative RT-PCR using mRNAs isolated at 72 and 96 hours from LC319 cells treated with 1 μM NMU-25 or BSA at the time point of 0 and 48 hours.
Therefore, we chose FOXM1 for further analysis. To determine specific induction of the FOXM1 by the NMU ligand-receptor signaling, LC319 cells expressing GHSR1b and NTSR1 were cultured in the presence of NMU-25 or BSA (control) at final concentrations of 100 μM in the culture media.

COS-7 cells = assay: Growth of COS-7 cells with NMU in the medium; type: cell-based; settings: addition into the medium, dose-dependent
[5] = COS-7, NMU-25-rhodamine 0.5 μM, 12 hours

T3 sequence (Q92847 1-289 isoform Q92847-2): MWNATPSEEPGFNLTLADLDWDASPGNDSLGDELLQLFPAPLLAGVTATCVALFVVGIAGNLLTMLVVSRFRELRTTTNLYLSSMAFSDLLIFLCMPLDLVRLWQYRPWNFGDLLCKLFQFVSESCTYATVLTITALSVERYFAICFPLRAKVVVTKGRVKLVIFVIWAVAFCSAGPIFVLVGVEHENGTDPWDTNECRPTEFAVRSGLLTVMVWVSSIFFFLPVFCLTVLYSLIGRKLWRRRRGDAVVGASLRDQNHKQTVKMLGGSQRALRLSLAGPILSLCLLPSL
T3 sequence (P30989 whole entry): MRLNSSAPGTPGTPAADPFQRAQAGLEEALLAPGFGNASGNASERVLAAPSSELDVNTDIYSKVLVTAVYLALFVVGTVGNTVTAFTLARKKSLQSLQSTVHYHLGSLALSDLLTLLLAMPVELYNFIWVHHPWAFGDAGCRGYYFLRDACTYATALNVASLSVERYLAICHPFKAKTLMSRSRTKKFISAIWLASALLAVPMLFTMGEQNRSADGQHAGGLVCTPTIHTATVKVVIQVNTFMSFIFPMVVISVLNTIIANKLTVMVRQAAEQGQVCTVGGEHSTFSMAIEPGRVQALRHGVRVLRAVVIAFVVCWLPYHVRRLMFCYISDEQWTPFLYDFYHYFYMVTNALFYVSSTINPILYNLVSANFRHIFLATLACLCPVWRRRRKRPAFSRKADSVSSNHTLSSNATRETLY

Molecule: CCOC(=O)C1=C(C)NC(=S)NC1c1cccc(O)c1 (centres unmarked) [monastrol]
- time to loss of protrusion and connection to adjacent cells, non-mitotic cells (A549 cells [1]): ≤ 2 h

Molecule: COC(=O)Nc1nc2ccc(C(=O)c3cccs3)cc2[nH]1 [nocodazole]
- effect on endogenous KOC1, KIF11 and microtubules (A549 cells [2]): collapse and aggregation of endogenous KOC1 and KIF11, along with the depolymerization of microtubules in the cytoplasm

Molecule: Cy5-labeled NMU-25: Cy5-labeled NMU-25 peptide (FRVDEEFQSPFASQSRGYFLFRPRN; ends and bridges not checked; also: Cy5-labeled, site not given here)
- binding to the cell surface [3]: detected binding
- binding to the cell surface [4]: detected binding

Molecule: NMU-25: NMU-25 peptide, ligand neuromedin U (FRVDEEFQSPFASQSRGYFLFRPRN)
- co-localization with FLAG-tagged GHSR1b (confocal microscopy) (GHSR1b; [5]): located together on the cell membrane
- co-localization with FLAG-tagged NTSR1 (confocal microscopy) (NTSR1; [5]): located together on the cell membrane
- intracellular Ca2+ flux / mobilization (GHSR1b/NTSR1): but not Ca^2+ flux
- expression of FOXM1 (FOXM1): higher expression of FOXM1

Molecule: NMU: neuropeptide neuromedin U added into the medium (FRVDEEFQSPFASQSRGYFLFRPRN)
- growth of COS-7 cells (COS-7 cells): promoted the growth

Molecule: rhodamine-labeled NMU-25: rhodamine-labeled NMU-25 peptide (Phoenix Pharmaceuticals) (FRVDEEFQSPFASQSRGYFLFRPRN; ends and bridges not checked; also: rhodamine-labeled, site not given here)
- binding to surface of COS-7 cells expressing GHSR1b (flow cytometry) (GHSR1b; dose dependent): binding
- binding to surface of COS-7 cells expressing NTSR1 (flow cytometry) (NTSR1; dose dependent): binding
